# Experimental data from patent publication US11413278B2, “Compounds and methods for promoting stress resistance” (priority 2015, dated 2022).
# Where two headings read alike, the source gives them in different places.
# Tests used:
# NRF2 [1] = assay: qPCR analysis of NRF2-regulated genes; assay type: cell-based, human; conditions: for fold induction at 10 µM: Homo sapiens
# In short: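 Expression of HMOX1, NQO1, GCLC and GSTM1 measured by qPCR relative to B2M, PPIA and GAPDH. Cells were WI-38 fibroblasts exposed 24 hrs to 10 μM compound, with RNA and cDNA prepared via Cells-to-Ct. Where stated, cells were first transfected 36 hrs with FOXO3 or NRF2 siRNA at 10 nM.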
# NRF2 [2] = assay: in vitro; assay type: cell-based, human
# LC3A/B puncta = assay: Autophagy induction analysis (LC3A/B puncta immuno-staining); assay type: cell-based, human
# Description: Immuno-staining of LC3A/B was performed, following a standard protocol. Briefly, WI-38 cells were treated with small molecules for 24 hrs, and then processed and incubated with primary antibody (Cell Signaling, rabbit anti-LC3A/B, 1:100) overnight at 4° C. Next day, samples were processed and incubated with fluorophore-conjugated secondary antibody and further incubated with DAPI dye. Images were collected on the INCell Analyzer 2000 (Experiment 1: 10× objective; Experiment 2: 20× objective) and analyzed with the Developer Toolbox. For Experiment 2, lysosomal-associated membrane protein 2 (LAMP2) was also counter-stained to identify the LC3A/B puncta that colocalize with lysosome and the data were analyzed by the MetaXpress software (Molecular Devices, version 5.1). The intensity of total (Exp. 1) or LAMP2-colocalized LC3A/B puncta (Exp. 2) was normalized the total numbers nuclei in the fields.
# These assays were performed, following the same procedures to analyze DNA-damage markers. WI-38 cells were incubated with small molecules for 24 hrs, and then processed and incubated with primary antibody (rabbit anti-LC3A/B, 1:100) overnight at 4 C. The next day, samples were processed and incubated with fluorophore-conjugated secondary antibody and further incubated with DAPI dye. Images were collected on an INCell Analyzer 2000 and analyzed with the Developer software. Total LC3A/B puncta intensity was normalized the total numbers of DAPI-positive nuclei.
# C. elegans = C. elegans lifespan assays (liquid and plate); assay type: in vivo, Caenorhabditis elegans; conditions: for ILS at 60 µM / ILS at 66 µM: Caenorhabditis elegans; for O = Life span- extending scores in worms: score scale 0 to 2, 4 to 6 independent trials; for M = Lifespan-extending scores in worms: summary score
# [3] = WI-38 cells, 10 μM, 24 hrs, n=4, qPCR normalized by B2M, read-out: GCLC Normalized fold change
# [4] = WI-38 cells, 10 μM, 24 hrs, n=4, qPCR normalized by B2M, read-out: GSTM1 Normalized fold change
# [5] = WI-38 cells, 10 μM, 24 hrs, n=4, qPCR normalized by B2M, read-out: HMOX1 Normalized fold change
# [6] = WI-38 cells, 10 μM, 24 hrs, n=4, qPCR normalized by B2M, read-out: NQO1 Normalized fold change
# [7] = 60 μM, in liquid, wild type, with FuDR, 1.0 × 10^9 bacteria/ml, read-out: relative change of mean lifespan vs control, Trial 1
# [8] = 60 μM, in liquid, wild type, with FuDR, 2.5 × 10^9 bacteria/ml, read-out: relative change of mean lifespan vs control, Trial 2
# [9] = 60 μM, on plate, CF512 temperature-sensitive sterile animals, without FuDR, 1.0 × 10^11 bacteria/ml, read-out: relative change of mean lifespan vs control, Trial 4
# [10] = 60 μM, on plate, CF512 temperature-sensitive sterile animals, without FuDR, 2.0 × 10^10 bacteria/ml, read-out: relative change of mean lifespan vs control, Trial 3
# [11] = Assay 2(z), 1.0 × 10^9 bacteria/ml, wild type + FuDR (2012 July), read-out: Lifespan assay in liquid
# [12] = Assay 3(aa), 2.5 × 10^9 bacteria/ml, wild type + FuDR, read-out: Lifespan assay in liquid
# [13] = Assay 4(ab), 2.0 × 10^10 bacteria/ml, CF512 worms, no FuDR, read-out: Lifespan assay on plates
# [14] = Assay 5(ac), 1.0 × 10^11 bacteria/ml, CF512 worms, no FuDR, read-out: Lifespan assay on plates
smiles,measurement,setting,value
O=C(/C(=C/c1ccc(Cl)cc1)c1nc2ccccc2[nH]1)c1ccccc1 [Gr-4D],"Induction of at least two NRF2-regulated genes (HMOX1, NQO1, GCLC, GSTM1)","NRF2 [1]; 10 μM, 24 hrs, WI-38",could induce both FOXO3- and NRF2-regulated genes
same,F = Potential NRF2 Activation,NRF2 [1]; 2-point score,2
same,"Potential NRF2 Activation (>=2 target genes induced, by >=1.5-fold)",NRF2 [1]; Assay 13(p),YES
same,fold induction at 10 µM,"NRF2 [1]; 24 h, Assay 12(o), at 10 uM, qPCR, read-out: Induction of NRF2-regulated genes: GSTM1 normalized fold-change",1.52
same,fold induction at 10 µM,"NRF2 [1]; 24 h, Assay 12(o), at 10 uM, qPCR, read-out: Induction of NRF2-regulated genes: HMOX1 normalized fold-change",4.55
same,fold induction at 10 µM,"NRF2 [1]; 24 h, Assay 12(o), at 10 uM, qPCR, read-out: Induction of NRF2-regulated genes: NQO1 normalized fold-change",2.56
same,fold induction at 10 µM,"NRF2 [1]; rounded fold change, WI-38 cells, 10 μM, 24 hrs (RP11 for Gr-1D, RP29 for Gr-4D), read-out: Summary of effects on NRF2-regulated genes: HMOX1",4.55
same,fold induction at 10 µM,"NRF2 [1]; rounded fold change, WI-38 cells, 10 μM, 24 hrs (RP29 for Gr-4D), read-out: Summary of effects on NRF2-regulated genes: GSTM1",1.52
same,fold induction at 10 µM,"NRF2 [1]; rounded fold change, WI-38 cells, 10 μM, 24 hrs (RP29 for Gr-4D), read-out: Summary of effects on NRF2-regulated genes: NQO1",2.56
same,fold induction at 10 µM,"NRF2 [1]; 10 μM, 24 hrs, WI-38, read-out: Expression of at least two NRF2 target genes",> 1.5
same,fold induction at 10 µM,"NRF2 [1]; 10 μM, 24 hrs, WI-38 cells, qPCR, normalized to B2M, n = 4, read-out: GSTM1 expression, normalized fold change (NRF2-regulated gene)",1.52
same,fold induction at 10 µM,"NRF2 [1]; 10 μM, 24 hrs, WI-38 cells, qPCR, normalized to B2M, n = 4, read-out: HMOX1 expression, normalized fold change (NRF2-regulated gene)",4.55
same,fold induction at 10 µM,"NRF2 [1]; 10 μM, 24 hrs, WI-38 cells, qPCR, normalized to B2M, n = 4, read-out: NQO1 expression, normalized fold change (NRF2-regulated gene)",2.56
same,fold induction at 10 µM,NRF2 [1]; [3],0.863
same,fold induction at 10 µM,NRF2 [1]; [4],1.52
same,fold induction at 10 µM,NRF2 [1]; [5],4.55
same,fold induction at 10 µM,NRF2 [1]; [6],2.56
same,"Summary of effects on NRF2-regulated genes: HMOX1, second run","NRF2 [1]; run RP42 (Gr-1D) / RP52 (Gr-4D), WI-38 cells, 10 μM","2.40,"
same,"Summary of effects on NRF2-regulated genes: NQO1, second run","NRF2 [1]; run RP52 (Gr-4D), WI-38 cells, 10 μM","1.49,"
same,F = Potential NRF2 Activation,NRF2 [1]; summary score,2
same,"NRF2-dependency for H2O2-resistance, at 10 uM (experiment 3) - with & without H2O2","NRF2 [2]; 10 uM, experiment 3, with & without H2O2",Partial
same,NRF2-dependency for H2O2-resistance (experiment 3),"NRF2 [2]; 10 uM, with & without H2O2, NRF2 knockdown in WI-38 cells, YES = resistance reduced by at least 50%, partial = 25% to 50%",Partial
same,NRF2-dependency of H2O2-resistance (NRF2 siRNA knockdown),NRF2 [2]; at least 2 of 3 independent experiments,partially dependent on NRF2
same,J = NRF2-dependency for H2O2-resistance,NRF2 [2]; score,0
same,J = NRF2-dependency for H2O2-resistance,NRF2 [2]; summary score,0
same,H = Potential Autophagy Induction,LC3A/B puncta; score,0
same,H = Potential Autophagy Induction,LC3A/B puncta; summary score,0
same,"relative change of mean lifespan vs control, Trial 6 (confirmative)","C. elegans; 60 μM, on plate, temperature-sensitive sterile animals, without FuDR, 1.0 × 10^11 bacteria/ml",+11.1%
same,"relative change of mean lifespan vs control, Trial 5 (confirmative)","C. elegans; 60 μM, on plate, temperature-sensitive sterile animals, without FuDR, 2.0 × 10^10 bacteria/ml",+39.4%
same,"Lifespan, average increase",C. elegans; 4 or more trials,24.0%
same,ILS at 60 µM,C. elegans; [7],50.8%
same,ILS at 60 µM,C. elegans; [8],9%
same,ILS at 60 µM,C. elegans; [9],11.3%
same,ILS at 60 µM,C. elegans; [10],22.2%
same,ILS at 66 µM,C. elegans; [11],50.8%
same,ILS at 66 µM,C. elegans; [12],9%
same,ILS at 66 µM,C. elegans; [13],22.2%
same,ILS at 66 µM,C. elegans; [14],11.3%
same,ILS at 66 µM,"C. elegans; Assay 6(ad), 2.0 × 10^10 bacteria/ml, CF512 worms, no FuDR, read-out: Lifespan assay on plates",39.4%
same,ILS at 66 µM,"C. elegans; Assay 7(ae), 1.0 × 10^11 bacteria/ml, CF512 worms, no FuDR, read-out: Lifespan assay on plates",11.1%
same,Lifespan extension of C. elegans,C. elegans; across independent trials,≤ 50%
same,Extension of C. elegans' lifespan (qualitative),"C. elegans; in at least 3 to 4 trials, group range ~10% to ~50%",could extend animal's lifespan
same,Trials with lifespan extension,C. elegans; positive of total trials,4 of 4
same,O = Life span- extending scores in worms,C. elegans,2 (2 for observed in more than 2 trials)
same,M = Lifespan-extending scores in worms,C. elegans,2 (2 for observed in more than 2 trials)
same,"Lifespan, mean (FIG. 6B)","C. elegans; temperature-sensitive sterile rollers, on plate, without FuDR, 25° C. then ~22° C., control 18.4±0.4",22.5±0.4
same,Lifespan increase (FIG. 6A),"C. elegans; wild-type, in liquid, with FuDR, 20° C., ~60 μM",~51.2%
same,"Lifespan, mean±SD (FIG. 6A)","C. elegans; wild-type, in liquid, with FuDR, 20° C., ~60 μM, control 21.1±0.5",31.9±1.1
Cc1cc(N)n(-c2ccccc2C(=O)O)n1 [Gr-6A],F = Potential NRF2 Activation,NRF2 [1]; 2-point score,0
same,fold induction at 10 µM,NRF2 [1]; [3],1.03
same,fold induction at 10 µM,NRF2 [1]; [4],1.09
same,fold induction at 10 µM,NRF2 [1]; [5],1.1
same,fold induction at 10 µM,NRF2 [1]; [6],1.02
same,F = Potential NRF2 Activation,NRF2 [1]; summary score,0
same,J = NRF2-dependency for H2O2-resistance,NRF2 [2]; score,0
same,J = NRF2-dependency for H2O2-resistance,NRF2 [2]; summary score,0
same,H = Potential Autophagy Induction,LC3A/B puncta; score,0
same,H = Potential Autophagy Induction,LC3A/B puncta; summary score,0
same,ILS at 60 µM,C. elegans; [7],5.5%
same,ILS at 60 µM,C. elegans; [8],6.8%
same,ILS at 60 µM,C. elegans; [9],-2.7%
same,ILS at 60 µM,C. elegans; [10],16.9%
same,ILS at 66 µM,C. elegans; [11],5.5%
same,ILS at 66 µM,C. elegans; [12],6.8%
same,ILS at 66 µM,C. elegans; [13],16.9%
same,ILS at 66 µM,C. elegans; [14],-2.7%
same,O = Life span- extending scores in worms,C. elegans,0
same,M = Lifespan-extending scores in worms,C. elegans,0
